Reference: patent US6372776B1, “Crystalline(−)-3R,4R-trans-7-methoxy-2,2-dimethyl-3-phenyl-4-{4-[2-(pyrrolidin-1-yl)ethoxy]phenyl}chromane, hydrogen maleate” (Novo Nordisk A/S, priority 1997, dated 2002)

Tests used:
[1] = stability characteristics
hygroscopicity = assay type: physicochemical
solubility in water = assay type: physicochemical

Molecule	bioavailability (bioavailability)	stability characteristics [1]	hygroscopicity (hygroscopicity)	solubility in water (solubility in water)
(−)-3R,4R-trans-7-methoxy-2,2-dimethyl-3-phenyl-4-{4-[2-(pyrrolidin-1-yl)ethoxy]phenyl}chromane, hydrogen maleate [hydrogen maleate salt]	good	good	non-hygroscopic	
COc1ccc2c(c1)OC(C)(C)C(c1ccccc1)[C@@H]2c1ccc(OCCN2CCCC2)cc1 (single isomer, unassigned; (-)) [free base, (−)-3R,4R-trans-7-methoxy-2,2-dimethyl-3-phenyl-4-{4-[2-(pyrrolidin-1-yl)ethoxy]phenyl}chromane]				very poor
